Legend:
[1] = test system: sheep liver fluke (Fasciola hepatica); assay: Flukicidal activity in sheep infected with sheep liver fluke: faecal egg count and post mortem adult fluke count after single dose (Table II); assay type: in vivo; settings: for Post Mortem Results: No of adult fluke: sheep liver; for Faecal Egg Count: sheep
Protocol: Compositions suitable for use as experimental aqueous oral drenches were prepared in the following general manner. A mixture of the required amount of active ingredient was mixed with 40 ml of an aqueous 0.25% w/w solution of "Lubrol E" ("Lubrol E" is a Registered Trade Mark for an octylphenol ethoxylate). The mixture was ball-milled for 30 minutes and the resultant suspension was used as an aqueous drench.
Compositions suitable for use as experimental injectable solutions were prepared by dissolving the chemical in propylene glycol and adjusting the concentration to 10% w/v active ingredient.
Compositions prepared by the methods of Examples 21 and 22 were used as a single dose to test sheep infected with sheep liver fluke (Fasciola hepatica). The number of liver fluke eggs in the faeces was measured at the time of treatment and at selected intervals up to 14 days after treatment. The sheep were killed on day 14 and the number of adult fluke in the liver counted. The amount and structure of active ingredient in each composition and the results of treatment of a sheep with that composition are given in the Table II below. The compositions were administered either by oral drench (oral) or by sub-cutaneous injection (s/c).

[2] = test system: immature fluke; assay: Effectiveness against immature fluke (Table II footnotes); assay type: in vivo, Fasciola hepatica; settings: oral route

## Oc1c(Br)cc(Br)cc1Cc1cc(F)cc(Cc2cc(Br)cc(Br)c2O)c1O [Compound 14]
[1]; 4.0 mg/kg oral, killed day 14
  Post Mortem Results: No of adult fluke: 1
[1]; 12.5 mg/kg oral, killed day 14
  Post Mortem Results: No of adult fluke: 0
[1]; 4.0 mg/kg oral, day 7
  Faecal Egg Count: 0 Eggs per g faeces
[1]; 4.0 mg/kg oral, day 14
  Faecal Egg Count: 0 Eggs per g faeces
[1]; 12.5 mg/kg oral, day 7
  Faecal Egg Count: 60 Eggs per g faeces
[1]; 12.5 mg/kg oral, day 14
  Faecal Egg Count: 0 Eggs per g faeces

## Oc1c(Cl)cc(Cl)cc1Cc1cc(F)cc(Cc2cc(Cl)cc(Cl)c2O)c1O [Compound 18, 2,6-bis(3,5-dichloro-2-hydroxybenzyl)-4-fluorophenol]
[1]; 12.5 mg/kg oral, killed day 14
  Post Mortem Results: No of adult fluke: 0
[1]; 12.5 mg/kg oral, day 7
  Faecal Egg Count: 0 Eggs per g faeces
[1]; 12.5 mg/kg oral, day 14
  Faecal Egg Count: 0 Eggs per g faeces

## Oc1c(I)cc(Cl)cc1Cc1cc(F)cc(Cc2cc(Cl)cc(I)c2O)c1O [Compound 29]
[1]; 6.3 mg/kg oral, killed day 14
  Post Mortem Results: No of adult fluke: 0
[1]; 12.5 mg/kg oral, killed day 14
  Post Mortem Results: No of adult fluke: 0
[1]; 6.3 mg/kg oral, day 7
  Faecal Egg Count: 0 Eggs per g faeces
[1]; 6.3 mg/kg oral, day 14
  Faecal Egg Count: 0 Eggs per g faeces
[1]; 12.5 mg/kg oral, day 7
  Faecal Egg Count: 10 Eggs per g faeces
[1]; 12.5 mg/kg oral, day 14
  Faecal Egg Count: 0 Eggs per g faeces
[2]; 10 mg/kg
  effective against immature fluke: 81%

## Oc1c(Cl)cc(F)cc1Cc1cc(Cl)cc(Cc2cc(F)cc(Cl)c2O)c1O [Compound 17]
[1]; 12.5 mg/kg oral, killed day 14
  Post Mortem Results: No of adult fluke: 2
[1]; 12.5 mg/kg oral, day 7
  Faecal Egg Count: 150 Eggs per g faeces
[1]; 12.5 mg/kg oral, day 14
  Faecal Egg Count: 20 Eggs per g faeces
[1]; 12.5 mg/kg oral, day 18
  Faecal Egg Count: 20 Eggs per g faeces

## CC(c1cc(F)cc(Br)c1O)c1cc(Cl)cc(C(C)c2cc(F)cc(Br)c2O)c1O (stereo not drawn) [Compound 40, 2,6-Bis[1-(3-bromo-5-fluoro-2-hydroxyphenyl)ethyl]-4-chlorophenol]
[1]; 12.5 mg/kg oral, killed day 14
  Post Mortem Results: No of adult fluke: 11
[1]; 12.5 mg/kg oral, day 7
  Faecal Egg Count: 0 Eggs per g faeces
[1]; 12.5 mg/kg oral, day 14
  Faecal Egg Count: 0 Eggs per g faeces

## Oc1c(Br)cc(F)cc1Cc1cc(F)cc(Cc2cc(F)cc(Br)c2O)c1O [Compound 22]
[1]; 6.3 mg/kg oral, killed day 14
  Post Mortem Results: No of adult fluke: 0
[1]; 12.5 mg/kg oral, killed day 14
  Post Mortem Results: No of adult fluke: 0
[1]; 6.3 mg/kg oral, day 7
  Faecal Egg Count: 0 Eggs per g faeces
[1]; 6.3 mg/kg oral, day 14
  Faecal Egg Count: 0 Eggs per g faeces
[1]; 12.5 mg/kg oral, day 7
  Faecal Egg Count: 1340 Eggs per g faeces
[1]; 12.5 mg/kg oral, day 14
  Faecal Egg Count: 0 Eggs per g faeces

## Oc1c(I)cc(F)cc1Cc1cc(F)cc(Cc2cc(F)cc(I)c2O)c1O [Compound 38]
[1]; 6.3 mg/kg oral, killed day 14
  Post Mortem Results: No of adult fluke: 0
[1]; 4.0 mg/kg oral, day 7
  Faecal Egg Count: 50 Eggs per g faeces
[1]; 4.0 mg/kg oral, day 14
  Faecal Egg Count: 80 Eggs per g faeces
[1]; 6.3 mg/kg oral, day 7
  Faecal Egg Count: 190 Eggs per g faeces
[1]; 6.3 mg/kg oral, day 14
  Faecal Egg Count: 0 Eggs per g faeces

## Oc1c(I)cc(F)cc1Cc1cc(Cl)cc(Cc2cc(F)cc(I)c2O)c1O [Compound 24]
[1]; 12.5 mg/kg oral, killed day 14
  Post Mortem Results: No of adult fluke: 0
[1]; 12.5 mg/kg oral, day 7
  Faecal Egg Count: 20 Eggs per g faeces
[1]; 12.5 mg/kg oral, day 14
  Faecal Egg Count: 0 Eggs per g faeces

## O=[N+]([O-])c1cc(Cl)cc(Cc2cc(Cl)cc(Cc3cc(Cl)cc([N+](=O)[O-])c3O)c2O)c1O [Compound 9, 2,6-Bis(5-chloro-2-hydroxy-3-nitrobenzyl)-4-chlorophenol]
[1]; 12.5 mg/kg s/c, killed day 14
  Post Mortem Results: No of adult fluke: 3
[1]; 12.5 mg/kg s/c, day 7
  Faecal Egg Count: 0 Eggs per g faeces
[1]; 12.5 mg/kg s/c, day 14
  Faecal Egg Count: 10 Eggs per g faeces

## Oc1c(Br)cc(F)cc1Cc1cc(Br)cc(Cc2cc(F)cc(Br)c2O)c1O [Compound 25]
[1]; 12.5 mg/kg oral, killed day 14
  Post Mortem Results: No of adult fluke: 0
[1]; 12.5 mg/kg oral, day 7
  Faecal Egg Count: 0 Eggs per g faeces
[1]; 12.5 mg/kg oral, day 14
  Faecal Egg Count: 0 Eggs per g faeces

## CC(c1cc(Cl)cc(Cl)c1O)c1cc(F)cc(Cc2cc(F)cc(Br)c2O)c1O (stereo not drawn) [Compound 46]
[1]; 12.5 mg/kg oral, killed day 14
  Post Mortem Results: No of adult fluke: 0
[1]; 12.5 mg/kg oral, day 7
  Faecal Egg Count: 0 Eggs per g faeces
[1]; 12.5 mg/kg oral, day 14
  Faecal Egg Count: 0 Eggs per g faeces

## CC(c1cc(F)cc(Br)c1O)c1cc(Cl)cc(Cc2cc(F)cc(Br)c2O)c1O (stereo not drawn) [Compound 39]
[1]; 3.0 mg/kg oral, killed day 14
  Post Mortem Results: No of adult fluke: 0
[1]; 6.0 mg/kg oral, killed day 14
  Post Mortem Results: No of adult fluke: 0
[1]; 3.0 mg/kg oral, day 7
  Faecal Egg Count: 210 Eggs per g faeces
[1]; 3.0 mg/kg oral, day 14
  Faecal Egg Count: 0 Eggs per g faeces
[1]; 6.0 mg/kg oral, day 7
  Faecal Egg Count: 60 Eggs per g faeces
[1]; 6.0 mg/kg oral, day 14
  Faecal Egg Count: 0 Eggs per g faeces

## Oc1c(Br)cc(F)cc1Cc1cc(Cl)cc(Cc2cc(F)cc(Br)c2O)c1O [Compound 2, 2,6-bis(3-bromo-5-fluoro-2-hydroxybenzyl)-4-chlorophenol]
[1]; 3.1 mg/kg oral, killed day 14
  Post Mortem Results: No of adult fluke: 0
[1]; 6.5 mg/kg oral, killed day 14
  Post Mortem Results: No of adult fluke: 0
[1]; 12.5 mg/kg oral, killed day 14
  Post Mortem Results: No of adult fluke: 0
[1]; 12.5 mg/kg s/c, killed day 14
  Post Mortem Results: No of adult fluke: 0
[1]; 3.1 mg/kg oral, day 7
  Faecal Egg Count: 20 Eggs per g faeces
[1]; 3.1 mg/kg oral, day 14
  Faecal Egg Count: 0 Eggs per g faeces
[1]; 6.5 mg/kg oral, day 7
  Faecal Egg Count: 40 Eggs per g faeces
[1]; 6.5 mg/kg oral, day 14
  Faecal Egg Count: 0 Eggs per g faeces
[1]; 12.5 mg/kg oral, day 2
  Faecal Egg Count: 130 Eggs per g faeces
[1]; 12.5 mg/kg oral, day 7
  Faecal Egg Count: 0 Eggs per g faeces
[1]; 12.5 mg/kg oral, day 13
  Faecal Egg Count: 0 Eggs per g faeces
[1]; 12.5 mg/kg s/c, day 3
  Faecal Egg Count: 3800 Eggs per g faeces
[1]; 12.5 mg/kg s/c, day 7
  Faecal Egg Count: 0 Eggs per g faeces
[1]; 12.5 mg/kg s/c, day 14
  Faecal Egg Count: 0 Eggs per g faeces

## CC(c1cc(Cl)cc(Cl)c1O)c1cc(F)cc(Cc2cc(Cl)cc(Br)c2O)c1O (stereo not drawn) [Compound 30, 2-(3-Bromo-5chloro-2-hydroxybenzyl)-6-[1-(3,5-dichloro-2-hydroxyphenyl)ethyl]-4-fluorophenol]
[1]; 12.5 mg/kg oral, killed day 14
  Post Mortem Results: No of adult fluke: 0
[1]; 12.5 mg/kg oral, day 7
  Faecal Egg Count: 0 Eggs per g faeces
[1]; 12.5 mg/kg oral, day 14
  Faecal Egg Count: 0 Eggs per g faeces

## CC(=O)Oc1c(Cc2cc(Cl)cc(Br)c2O)cc(F)cc1Cc1cc(Cl)cc(Br)c1O [Compound 31]
[1]; 12.5 mg/kg oral, killed day 14
  Post Mortem Results: No of adult fluke: 0
[1]; 12.5 mg/kg oral, day 7
  Faecal Egg Count: 220 Eggs per g faeces
[1]; 12.5 mg/kg oral, day 14
  Faecal Egg Count: 10 Eggs per g faeces

## Oc1c(Br)cc(Br)cc1Cc1cc(Cl)cc(Cc2cc(Br)cc(Br)c2O)c1O [Compound 11]
[1]; 12.5 mg/kg oral, killed day 14
  Post Mortem Results: No of adult fluke: 12
[1]; 12.5 mg/kg oral, day 7
  Faecal Egg Count: 130 Eggs per g faeces
[1]; 12.5 mg/kg oral, day 14
  Faecal Egg Count: 40 Eggs per g faeces

## Oc1c(Br)cc(Cl)cc1Cc1cc(F)cc(Cc2cc(Cl)cc(Br)c2O)c1O [Compound 4, 2,6-bis(3-bromo-5-chloro-2-hydroxybenzyl)-4-fluorophenol]
[1]; 1.0 mg/kg oral, killed day 14
  Post Mortem Results: No of adult fluke: 0
[1]; 2.0 mg/kg s/c, killed day 14
  Post Mortem Results: No of adult fluke: 0
[1]; 3.1 mg/kg oral, killed day 14
  Post Mortem Results: No of adult fluke: 0
[1]; 6.3 mg/kg oral, killed day 14
  Post Mortem Results: No of adult fluke: 0
[1]; 12.5 mg/kg oral, Day 29
  Post Mortem Results: No of adult fluke: 0
[1]; 2.0 mg/kg s/c, day 7
  Faecal Egg Count: 20 Eggs per g faeces
[1]; 2.0 mg/kg s/c, day 14
  Faecal Egg Count: 0 Eggs per g faeces
[1]; 3.1 mg/kg oral, day 2
  Faecal Egg Count: 0 Eggs per g faeces
[1]; 3.1 mg/kg oral, day 7
  Faecal Egg Count: 10 Eggs per g faeces
[1]; 3.1 mg/kg oral, day 14
  Faecal Egg Count: 0 Eggs per g faeces
[1]; 6.3 mg/kg oral, day 2
  Faecal Egg Count: 70 Eggs per g faeces
[1]; 6.3 mg/kg oral, day 7
  Faecal Egg Count: 0 Eggs per g faeces
[1]; 12.5 mg/kg oral, day 2
  Faecal Egg Count: 2520 Eggs per g faeces
[1]; 12.5 mg/kg oral, day 7
  Faecal Egg Count: 200 Eggs per g faeces
[1]; 12.5 mg/kg oral, day 14
  Faecal Egg Count: 0 Eggs per g faeces
[2]; 5.0 mg/kg
  effective against immature fluke: 49%
[2]; 7.5 mg/kg
  effective against immature fluke: 85%
[2]; 10 mg/kg
  effective against immature fluke: 98%

## Oc1c(Br)cc(Cl)cc1Cc1cc(Cl)cc(Cc2cc(Cl)cc(Br)c2O)c1O [Compound 12]
[1]; 4.0 mg/kg oral, killed day 14
  Post Mortem Results: No of adult fluke: 0
[1]; 12.5 mg/kg oral, killed day 14
  Post Mortem Results: No of adult fluke: 0
[1]; 4.0 mg/kg oral, day 7
  Faecal Egg Count: 0 Eggs per g faeces
[1]; 4.0 mg/kg oral, day 14
  Faecal Egg Count: 0 Eggs per g faeces
[1]; 12.5 mg/kg oral, day 7
  Faecal Egg Count: 40 Eggs per g faeces
[1]; 12.5 mg/kg oral, day 14
  Faecal Egg Count: 0 Eggs per g faeces

Reference: patent US4163801A, “Treatment of animals with 2,6-bis(2-hydroxybenzyl)phenols to eradicate trematodes” (ICI Australia Limited, priority 1976, dated 1979)
